Source: ChEMBL document CHEMBL4190166 (Medchemcomm, 2016)
One block for each compound: values may come before it.

Key:
[1] = target: Protein cereblon/Tyrosine-protein kinase ABL1 (Homo sapiens) (UniProt P00519+Q96SW2); test: Proteolysis targeting chimera activity in human K562 cells assessed as induction of cereblon-mediated delivery of ABL for protein degradation by proteasome at 1 uM after 24 hrs by immuno blot analysis relative to control; type: cell-based
[2] = target: Protein cereblon/Tyrosine-protein kinase ABL1/Breakpoint cluster region protein (Homo sapiens) (UniProt P00519+P11274+Q96SW2); test: Proteolysis targeting chimera activity in human K562 cells assessed as induction of cereblon-mediated delivery of BCR-ABL for protein degradation by proteasome at 1 uM after 24 hrs by immuno blot analysis relative to control; type: cell-based
[3] = target: von Hippel-Lindau disease tumor suppressor/Bromodomain-containing protein 2 (Homo sapiens, UniProt P25440+P40337); test: Proteolysis targeting chimera activity in human 22Rv1 cells assessed as induction of VHL-mediated delivery of BRD2 for protein degradation by proteasome by measuring drug level causing 50% substrate depletion incubated for 16 hrs by Western blot method; type: cell-based
VCaP = test: Antitumor activity against human VCaP cells xenografted in SCID mouse assessed as tumor growth inhibition at 10 mg/kg, sc administered every 3 days for 16 days relative to control; type: functional; settings: read-out: TGI
[4] = target: T1, Protein cereblon/Bromodomain-containing protein 4 (Homo sapiens, UniProt O60885+Q96SW2); test: Proteolysis targeting chimera activity in human MV4-11 cells assessed as induction of cereblon-mediated delivery of BRD4 for protein degradation by proteasome at 100 nM incubated for 18 hrs by immuno blot analysis; type: cell-based
Kidney = test: In vivo induction of ERRalpha degradation in CD-1 mouse kidney at 100 mg/kg, ip every 8 hrs measured 5 hrs post last dose by LC/MS analysis relative to control; type: functional
Heart = test: In vivo induction of ERRalpha degradation in CD-1 mouse heart at 100 mg/kg, ip every 8 hrs measured 5 hrs post last dose by LC/MS analysis relative to control; type: functional
MDA-MB-231 = test: In vivo induction of ERRalpha degradation in human MDA-MB-231 cells xenografted in […] mouse at 100 mg/kg, ip every 8 hrs measured 5 hrs post last dose by LC/MS analysis relative to control; type: functional
[5] = target: von Hippel-Lindau disease tumor suppressor/Steroid hormone receptor ERR1 (Homo sapiens, UniProt P11474+P40337); test: Proteolysis targeting chimera activity in human MCF7 cells assessed as induction of VHL-mediated delivery of ERRalpha for protein degradation by proteasome by measuring drug level causing 50% substrate depletion incubated for 24 hrs by Western blot method; type: cell-based
[6] = target: T1, Protein cereblon/Bromodomain-containing protein 4; test: Proteolysis targeting chimera activity in human BL cells assessed as induction of cereblon-mediated delivery of BRD4 for protein degradation by proteasome by immuno blot analysis; type: cell-based
[7] = target: Protein cereblon/Peptidyl-prolyl cis-trans isomerase FKBP1A (Homo sapiens, UniProt P62942+Q96SW2); test: Proteolysis targeting chimera activity in human MV4-11 cells assessed as induction of cereblon-mediated delivery of FKBP12 for protein degradation by proteasome incubated for 18 hrs by immuno blot analysis; type: cell-based

T1 sequence (Q96SW2 whole entry, looked up, other chains not shown): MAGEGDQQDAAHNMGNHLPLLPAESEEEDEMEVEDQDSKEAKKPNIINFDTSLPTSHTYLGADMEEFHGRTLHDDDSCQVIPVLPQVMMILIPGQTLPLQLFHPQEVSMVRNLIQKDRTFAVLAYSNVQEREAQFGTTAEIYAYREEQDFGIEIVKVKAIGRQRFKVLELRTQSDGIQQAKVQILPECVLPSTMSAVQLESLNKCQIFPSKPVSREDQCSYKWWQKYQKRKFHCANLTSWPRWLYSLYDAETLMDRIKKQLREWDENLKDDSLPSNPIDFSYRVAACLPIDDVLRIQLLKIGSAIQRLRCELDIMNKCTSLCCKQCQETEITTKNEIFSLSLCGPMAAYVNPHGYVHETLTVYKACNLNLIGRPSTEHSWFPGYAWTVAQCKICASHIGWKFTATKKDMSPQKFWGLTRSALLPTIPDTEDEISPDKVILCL
Protein cereblon/Tyrosine-protein kinase ABL1/Breakpoint cluster region protein (Homo sapiens), sequence (P00519 whole entry, looked up): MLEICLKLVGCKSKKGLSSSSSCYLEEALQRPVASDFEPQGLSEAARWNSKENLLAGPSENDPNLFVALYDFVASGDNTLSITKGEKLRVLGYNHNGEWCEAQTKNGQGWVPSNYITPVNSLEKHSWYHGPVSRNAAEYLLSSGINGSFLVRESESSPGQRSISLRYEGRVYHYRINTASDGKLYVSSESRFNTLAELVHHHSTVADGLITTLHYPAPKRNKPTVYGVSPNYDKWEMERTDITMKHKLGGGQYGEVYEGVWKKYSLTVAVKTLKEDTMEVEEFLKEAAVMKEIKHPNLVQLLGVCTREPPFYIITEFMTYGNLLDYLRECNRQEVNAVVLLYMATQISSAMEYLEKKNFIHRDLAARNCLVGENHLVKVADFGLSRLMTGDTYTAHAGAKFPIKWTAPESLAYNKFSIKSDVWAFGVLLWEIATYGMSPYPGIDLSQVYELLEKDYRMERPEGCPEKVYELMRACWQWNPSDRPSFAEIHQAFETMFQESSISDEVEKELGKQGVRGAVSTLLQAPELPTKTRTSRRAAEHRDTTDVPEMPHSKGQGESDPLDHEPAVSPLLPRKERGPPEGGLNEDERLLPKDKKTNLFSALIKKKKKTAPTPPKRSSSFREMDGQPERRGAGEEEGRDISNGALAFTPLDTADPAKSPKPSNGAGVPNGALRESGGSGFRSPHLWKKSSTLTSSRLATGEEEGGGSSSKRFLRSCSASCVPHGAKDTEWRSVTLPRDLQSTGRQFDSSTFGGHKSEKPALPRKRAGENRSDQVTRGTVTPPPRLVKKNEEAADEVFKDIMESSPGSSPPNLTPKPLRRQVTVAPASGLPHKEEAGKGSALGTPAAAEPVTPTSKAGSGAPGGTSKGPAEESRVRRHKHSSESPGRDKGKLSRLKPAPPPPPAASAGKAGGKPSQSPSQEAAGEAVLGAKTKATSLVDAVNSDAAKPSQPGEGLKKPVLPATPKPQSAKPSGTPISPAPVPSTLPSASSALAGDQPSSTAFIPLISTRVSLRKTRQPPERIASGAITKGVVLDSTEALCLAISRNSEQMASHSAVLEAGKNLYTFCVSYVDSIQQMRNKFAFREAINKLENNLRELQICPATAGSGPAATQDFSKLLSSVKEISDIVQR
Protein cereblon/Tyrosine-protein kinase ABL1/Breakpoint cluster region protein (Homo sapiens), sequence (P11274 whole entry, looked up): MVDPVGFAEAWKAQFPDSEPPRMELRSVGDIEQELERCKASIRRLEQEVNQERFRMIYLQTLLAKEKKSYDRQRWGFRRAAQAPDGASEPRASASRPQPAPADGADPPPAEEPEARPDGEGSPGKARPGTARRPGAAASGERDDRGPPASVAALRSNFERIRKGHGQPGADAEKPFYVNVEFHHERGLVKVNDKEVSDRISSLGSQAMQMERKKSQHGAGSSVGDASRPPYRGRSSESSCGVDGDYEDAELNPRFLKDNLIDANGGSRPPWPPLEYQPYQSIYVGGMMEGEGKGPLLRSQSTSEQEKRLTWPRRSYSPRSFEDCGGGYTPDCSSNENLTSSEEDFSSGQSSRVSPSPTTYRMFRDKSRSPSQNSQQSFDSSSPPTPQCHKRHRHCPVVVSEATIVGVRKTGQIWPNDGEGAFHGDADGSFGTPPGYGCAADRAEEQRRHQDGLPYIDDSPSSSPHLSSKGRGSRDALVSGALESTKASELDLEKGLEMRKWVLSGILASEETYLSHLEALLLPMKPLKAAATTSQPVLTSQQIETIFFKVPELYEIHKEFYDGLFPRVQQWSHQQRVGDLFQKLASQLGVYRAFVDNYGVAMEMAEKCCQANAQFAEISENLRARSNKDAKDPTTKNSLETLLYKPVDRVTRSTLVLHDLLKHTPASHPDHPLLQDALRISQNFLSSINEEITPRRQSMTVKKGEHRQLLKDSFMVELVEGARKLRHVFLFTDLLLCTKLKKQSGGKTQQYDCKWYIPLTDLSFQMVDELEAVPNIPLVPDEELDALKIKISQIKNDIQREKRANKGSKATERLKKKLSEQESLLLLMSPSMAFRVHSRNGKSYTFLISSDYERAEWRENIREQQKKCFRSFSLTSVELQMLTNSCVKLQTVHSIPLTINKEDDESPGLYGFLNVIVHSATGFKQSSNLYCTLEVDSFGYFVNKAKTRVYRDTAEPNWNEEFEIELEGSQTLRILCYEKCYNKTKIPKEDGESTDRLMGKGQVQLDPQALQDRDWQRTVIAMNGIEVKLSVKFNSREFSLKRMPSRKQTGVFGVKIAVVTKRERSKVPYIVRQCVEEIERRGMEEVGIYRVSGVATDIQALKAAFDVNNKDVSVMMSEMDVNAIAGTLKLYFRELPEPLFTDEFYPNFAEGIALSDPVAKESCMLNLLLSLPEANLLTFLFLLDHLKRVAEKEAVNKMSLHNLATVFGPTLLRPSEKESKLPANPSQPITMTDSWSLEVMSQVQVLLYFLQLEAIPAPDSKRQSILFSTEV
Protein cereblon/Tyrosine-protein kinase ABL1/Breakpoint cluster region protein (Homo sapiens), sequence (Q96SW2 whole entry, looked up): as the sequence (Q96SW2 whole entry, looked up, other chains not shown) above
Protein cereblon/Tyrosine-protein kinase ABL1 (Homo sapiens), sequence (P00519 whole entry, looked up): as the sequence (P00519 whole entry, looked up) above
Protein cereblon/Tyrosine-protein kinase ABL1 (Homo sapiens), sequence (Q96SW2 whole entry, looked up): as the sequence (Q96SW2 whole entry, looked up, other chains not shown) above

Imax [1]: 90%
Imax [2]: 80%
SMILES: COc1cc(Nc2c(C#N)cnc3cc(OCCCN4CCN(CCCCCCOCCOCCOCCCCCc5cccc6c5C(=O)N(C5CCC(=O)NC5=O)C6=O)CC4)c(OC)cc23)c(Cl)cc1Cl (stereo not drawn)

IC50 [3]: < 5 nM
SMILES: Cc1ncsc1-c1ccc([C@H](C)NC(=O)[C@@H]2C[C@@H](O)CN2C(=O)[C@@H](NC(=O)COCCCOCCNC(=O)C[C@@H]2N=C(c3ccc(Cl)cc3)c3c(sc(C)c3C)-n3c(C)nnc32)C(C)(C)C)cc1
inhibition in vivo at 10 mg/kg (VCaP): 60%

Imax [4]: > 85%
SMILES: Cc1sc2c(c1C)C(c1ccc(Cl)cc1)=C[C@@H](CC(=O)NCCCCNC(=O)COc1cccc3c1C(=O)N(C1CCC(=O)NC1=O)C3=O)c1nnc(C)n1-2 (stereo partly drawn)

IC50 [5]: 100 nM
SMILES: COc1cc(/C=C2\SC(=O)N(CCOCCC(=O)N[C@H](C(=O)N3C[C@H](O)C[C@H]3C(=O)NCc3ccc(-c4scnc4C)cc3)C(C)(C)C)C2=O)ccc1Oc1ccc(C#N)cc1C(F)(F)F
Activity (Kidney): 40%
Activity (Heart): 40%
Activity (MDA-MB-231): 40%

IC50 [6]: < 1 nM
SMILES: Cc1sc2c(c1C)C(c1ccc(Cl)cc1)=C[C@@H](CC(=O)Nc1ccc(OCCOCCOCCOCCNc3cccc4c3C(=O)N(C3CCC(=O)NC3=O)C4=O)cc1)c1nnc(C)n1-2 (stereo partly drawn)

IC50 [7]: 10 nM
SMILES: CCC(C)(C)C(=O)C(=O)N1CCCC[C@H]1C(=O)O[C@H](CCc1ccc(OC)c(OC)c1)c1cccc(NC(=O)CCC(=O)NCCNC(=O)COc2cccc3c2C(=O)N(C2CCC(=O)NC2=O)C3=O)c1 (stereo partly drawn)

Imax [1]: > 85%
Imax [2]: > 60%
SMILES: Cc1nc(Nc2ncc(C(=O)Nc3c(C)cccc3Cl)s2)cc(N2CCN(CCCCCCOCCOCCOCCCCCc3cccc4c3C(=O)N(C3CCC(=O)NC3=O)C4=O)CC2)n1 (stereo not drawn)
